Series [1] concerns Tacaribe (TRVL 11573) virus. The series is described as follows: microbe, parasite or virus in culture. Format: cell-based. Conditions: Mammarenavirus tacaribeense, Vero.
In series [2] the test system is Candid 1. The series is described as follows: organism not typed. Conditions: read-out: EC50 Candid 1. Format: cell-based, Junín virus.
For series [3], the system named is Machupo virus. The series can be described thus: microbe, parasite or virus in culture. As to conditions: Mammarenavirus machupoense, Vero, 120 h, read-out: EC50 Category A NWA, Machupo. Format: cell-based.
Series [4] relates to Guanarito virus. The series can be described thus: microbe, parasite or virus in culture. Format: cell-based. As to conditions: Mammarenavirus guanaritoense, Vero, 120 h, read-out: EC50 Category A NWA, Guanarito.
The test system of series [5] is Vero cells.
Series [6] is described as follows: in vitro. Conditions: African green monkey.
For series [7] the following is noted: in vivo; cited from earlier work.
For series [8] the following is noted: in vivo; cited from earlier work. This is another data set of the same source.
In series [9] the test system is Arenavirus. Conditions: cited from earlier work.

Like-named read-outs stand apart in the source and are kept apart here. Numbered stars: 1 amine (or outer) side, 2 acyl side, 3 side chain; on linkers, the order of the positions; unused ones are H or OH. Bridge positions count the residues as written; N and C are the ends. Square brackets hold non-standard residues; d marks the D form. Peptide text beside a SMILES is read from it. I, II: the chains in the order shown. Actinocin(9to1) = Cc1c2oc3c(C)ccc(C(=O)[*:1])c3nc-2c(C(=O)[*:2])c(N)c1=O; NMeV = CN[C@H](C(=O)O)C(C)C; Sar = CNCC(=O)O Where only a bound is given, the exact number is not on record here.

By EC50 is commonly meant the midpoint of the concentration-response curve.

Consider `CN1CCN(C(=S)Nc2ccc(Cl)c(Cl)c2)CC1` [Compound 313761, 4-methyl-piperazine-1-carbothioic acid (3,4-dichlorophenyl)-amide], for which the 50% effective concentration (EC50) in series [1] (168 h, read-out: EC50 Tacaribe) worked out at 140 nM; in [1] (read-out: EC50 value in the CPE assay) it was 140 nM; in [2] it was 260 nM; in [3] it was 300 nM; in series [4], 150 nM. Further, the “toxicity / effect on cell growth at antiviral concentrations” value in series [5] is given as “active at non-toxic concentrations”. Moreover, the CC50 in [6] stood at 50000 nM.

With `NC(=O)c1ncn([C@@H]2O[C@H](CO)[C@@H](O)[C@H]2O)n1` [ribavirin, Ribavirin], the adverse effects entry in [7] was “dose-related, reversible hemolytic anemia”. Also, the reproductive toxicity result in series [8] is “teratogenicity and embryo lethality”.

For `NC12CC3CC(CC(C3)C1)C2` [amantadine], in series [9], the anti-Arenavirus activity result is “generally weak and non-specific”.

For `CN1CCN(CCCN2c3ccccc3Sc3ccc(C(F)(F)F)cc32)CC1` [trifluoroperazine], in series [9], the anti-Arenavirus activity result is “generally weak and non-specific”.

Regarding `Cc1c2oc3c(C)ccc(C(=O)N[C@@H]4C(=O)N[C@H](C(C)C)C(=O)N5CCC[C@H]5C(=O)N(C)CC(=O)N(C)[C@@H](C(C)C)C(=O)O[C@@H]4C)c3nc-2c(C(=O)N[C@@H]2C(=O)N[C@H](C(C)C)C(=O)N3CCC[C@H]3C(=O)N(C)CC(=O)N(C)[C@@H](C(C)C)C(=O)O[C@@H]2C)c(N)c1=O` [actinomycin D] (I: T[dV]P[Sar][NMeV] / II: T[dV]P[Sar][NMeV]; ester I:1-I:C, II:1-II:C; linker I:N-II:N via Actinocin(9to1)), the anti-Arenavirus activity result in [9] is “generally weak and non-specific”.

`CN1CCN(C(=O)Nc2ccc(Cl)c(Cl)c2)CC1` [Compound 20013]: the concentration giving a half-maximal response (EC50) in series [1] (168 h, read-out: EC50 Tacaribe) was above 50000 nM; in series [2] it was above 50000 nM. For the same molecule, the CC50 in series [5] (African green monkey) and in [6] was above 50000 nM in each case.

`CN(C)CCCN1c2ccccc2Sc2ccc(Cl)cc21` [chlorpromazine]: the anti-Arenavirus activity entry in series [9] is “generally weak and non-specific”.

These data come from US8791110B2 (priority 2006, dated 2014).
